Read-outs that look alike come from different tables or passages of the source.
What was measured:
[1] = system: L1210/0; assay: Growth inhibition in L1210/0 cells; type: cell-based, murine; settings: 2 hours of exposure; mean (±SE), 3 experiments of 2 determinations
Source text: To examine the pro-drug potential in a biological setting, a comparison of the pharmacological properties of the blocked polyamine compounds in L1210 murine leukemia cells was undertaken.

[2] = system: L1210/DDP; assay: Growth inhibition in L1210/DDP cells; type: cell-based, murine; settings: for IC50: 2 hours of exposure, mean (±SE), 3 experiments of 2 determinations; for RF, resistance factor: IC50 L1210/DDP / IC50 L1210/0, 2 hours of exposure
[3] = system: L1210/0; assay: Cellular accumulation in L1210/0 cells; type: cell-based, murine; settings: 2 hours of exposure; (±SE), 3 experiments of 2 determinations
Experimental: (§1) Cellular accumulation. The cellular accumulation assays followed published procedures (7). Briefly, cells were resuspended at 10^7/mL in media supplemented with […]. Platinum complexes were added, and samples were incubated at 37° C. in 5% CO2. At 0 and 2 hours aliquots were removed for determination of cell concentrations and for measurement of platinum content. For the latter, aliquots were washed three times in cold phosphate buffered saline, resuspended in 1% Triton-X in water, and sonicated. Platinum content was measured by flameless atomic absorption spectroscopy.
(§2) The cellular accumulation of the blocked Pt compound 2 was also investigated. […] Based solely on charge considerations the BOC-spermidine with a charge of 2+ should have cellular uptake similar to 1,1/t,t (n=6). The enhanced uptake could be explained by some hydrolysis in media or plasma producing small amounts of the protonated 1,1/t,t-spermidine. Considering the potency of polynuclear-polyamine compounds, a small percentage of hydrolysis could have a significant impact on in vivo activity.

[4] = system: L1210/DDP; assay: Cellular accumulation in L1210/DDP cells; type: cell-based, murine; settings: 2 hours of exposure; (±SE), 3 experiments of 2 determinations
Experimental: as §1, §2

[5] = type: physicochemical; settings: for Rate constant for the deprotection: first order; for % 1 (percentage of 1 of the overall integration in the chromatogram after incubation): uncorrected
Experimental: Analyses of the products and hydrolysis studies were carried out on an analytical Beckman System Gold Nouveau HPLC instrument with UV detection at 215 nm. A Lichrosphere RP-8 column (5 μm particle size, dimensions 250 mm×4 mm) was used with a solvent gradient from water/methanol 97:3 (0.05 M NaClO4, 1% NaCl) to water/methanol 70:30 (0.05 M NaClO4, 2% NaCl).
Hydrolysis Study. For the hydrolysis experiments 10^−3 mMol complex were dissolved in 1 mL of nanopure water. The pH of the solutions was adjusted by addition of HNO3 (0.1 M, 0.01 M) and NaOH (0.1 M, 0.01 M), respectively. The samples were incubated in a water bath at 37° C. and aliquots of 20 μL were taken from the bulk solution for HPLC analysis. The pH values of the samples were controlled in regular intervals and readjusted if necessary.
The hydrolysis of the protective groups of compounds 2-4 was monitored at 37° C. at various pH values. […] In addition, the chromatogram of 2 contained a peak of a minor impurity (ca 0.4%) which remained unchanged during the timecourse of the reaction. Deprotection of the secondary amino function leads to the appearance of a signal for the unprotected spermidine complex 1 that, as a consequence of the increased cationic charge, is well separated from the signal of the N4 blocked precursor. The area percentage of the integrated signal of the unprotected species is taken as an estimate for the amount of hydrolysis at a given timepoint. To allow for a more accurate quantitative comparison of results, the extinction coefficients for compounds 1-4 were determined at 215 nm (Table 1). The integral values of the blocked compounds have been corrected for the higher absorbance of these species at the observed wavelength compared to the unprotected species 1. Table 2 provides a summary of the amount of hydrolysis for all samples before and after the correction. Rate constants were calculated based on the corrected integral values.
The hydrolysis of the blocking groups of on the N4 position of compounds 5-7 was monitored at 37° C. over a pH range of 6-8.
The amount of 1,1/t,t-spermidine released over time is depicted in FIG. 8. No other products were detected, trifluoroacetate, originating from the hydrolysis reaction, is not retained on the column under the present conditions and coelutes with the other anions (Cl^− from 5, NO3^− from pH adjustment). In order to obtain rate constants for the conversion of 7 to 1,1/t,t-spermidine, the integral values of the chromatograms were corrected for the different absorption of the species at the observed wavelength (ε215: 1, 3.64·10^3; 5, 7.62·10^3; 6, 10.4·10^3; 7, 9.46·10^3 L.Mol^−1 .cm^−1). Concentrations were calculated based on the assumption that the sum of the concentrations of both species at every time point equals the original concentration of 7 at the start of the experiment. First order rate constants were obtained using the program MicroMath Scientist Version 2.01. The results are summarized in Table 3 and compared with values obtained for BOC and Fmoc protected spermidine complexes.

[6] = system: A2780; assay: SRB growth inhibition assay, A2780; type: cell-based, human; settings: 96 h exposure
Experimental: (§3) Cell culture. A2780, A2780/CDDP, CH1, CH1/CDDP, 41M and 41M/CDDP cell lines were used in this study and maintained according to published procedures. (8,9).
(§4) Growth inhibition assay. The Sulforhodamine B (SRB) assay was used to determine growth inhibition potency of platinum drugs (10). The cells were seeded in 96-well microtitre plates at 3-8×10^3 cells/well in 160 μL growth medium and allowed to attach overnight. Platinum agents were then added after serial dilution in quadruplicate wells and exposed to cells for 2 or 96 hours. After the 2 hours drug incubations were complete, plates were washed free of drug with phosphate-buffered saline (PBS) and then refed with normal growth medium for a further 94 hours. Quantitation of cell growth in treated and control wells was then assessed using 0.4% SRB dissolved in 1% acetic acid. IC50 values were determined graphically.
(§5) Of special interest is the remarkably low value for 4 (Fmoc) in A2780 cells.

[7] = system: A2780/CDDP; assay: SRB growth inhibition assay, A2780/CDDP; type: cell-based, human; settings: for IC50: 96 h exposure; for RF A2780/CDDP: IC50 resistant/IC50 parent line, 96 h
Experimental: as §3
as §4, with “graphically. […]” for “graphically.”

[8] = system: CH1; assay: SRB growth inhibition assay, CH1; type: cell-based, human; settings: 96 h exposure
Experimental: as §3, §4, §5

[9] = system: CH1/CDDP; assay: SRB growth inhibition assay, CH1/CDDP; type: cell-based, human; settings: for IC50: 96 h exposure; for RF CH1/CDDP: IC50 resistant/IC50 parent line, 96 h
Experimental: as §3
as §4, with “graphically. […]” for “graphically.”

[10] = system: 41M; assay: SRB growth inhibition assay, 41M; type: cell-based, human; settings: 96 h exposure
Experimental: as §3, §4, §5

[11] = system: 41M/CDDP; assay: SRB growth inhibition assay, 41M/CDDP; type: cell-based, human; settings: for IC50: 96 h exposure, read-out: 96H IC50 CH1/CDDP; for RF CH1/CDDP: IC50 resistant/IC50 parent line, 96 h
Experimental: as §3, §4, §5

[12] = pH 5, 37° C., time 42 d (2), 30 d (3), 41 d (4)
[13] = pH 6, 37° C., time 42 d (2), 42 d (3), 41 d (4)
[14] = pH 7, 37° C., time 25 d (2), 41 d (4)

| SMILES | IC50 [1] | IC50 [2] | RF, resistance factor [2] | Accumulation L1210/0 [3] | Accumulation L1210/DDP [4] | % 1, corrected for the different extinction coefficients at 215 nm [5, 12] | % 1, corrected for the different extinction coefficients at 215 nm [5, 13] | Rate constant for the deprotection ([5]; pH 6, 37° C.) | Rate constant for the deprotection ([5]; pH 7, 37° C.) | IC50 [6] | IC50 [7] | RF A2780/CDDP [7] | IC50 [8] | IC50 [9] | RF CH1/CDDP [9] | IC50 [10] | other results |
| --- | --- | --- | --- | --- | --- | --- | --- | --- | --- | --- | --- | --- | --- | --- | --- | --- | --- |
| N.N.N.N.NCCCCCCN.[Cl][Pt+].[Cl][Pt+] [1,1/tt, [trans-{PtCl(NH3)2}2H2N(CH2)6NH2]^2+, reference compound] | 3.7 µM | 16 µM | 4.3 | 3.8 (0.70) attamol Pt complex/cell | 0.67 (0.21) attamol Pt complex/cell |  |  |  |  |  |  |  |  |  |  |  |  |
| CC(C)(C)OC(=O)N(CCCN)CCCCN.N.N.N.N.[Cl-].[Cl-].[Cl][Pt+].[Cl][Pt+] [Compound 2, [{trans-Pt(NH3)2Cl}2——N^4-BOC-spermidine-N^1,N^8]Cl2] | 1.25 µM | 4.6 µM | 3.7 | 5.0 (0.63) attamol Pt complex/cell | 4.8 (0.75) attamol Pt complex/cell | [15.1] % | [13.8] % | 4.29 (±0.05) · 10^−8 s^−1 | 3.12 (±0.04) · 10^−8 s^−1 | 2.1 µM | 19 µM | 9.0 | 8 µM | 11 µM | 1.4 | 17 µM | Rate constant for the deprotection ([5]; pH 5, 37° C.): 4.65 (±0.04) · 10^−8 s^−1; Rate constant for the deprotection ([5]; pH 6.6, 37° C.): 3.51 (±0.05) · 10^−8 s^−1; % 1, corrected for the different extinction coefficients at 215 nm [5, 14]: [6.6] % |
| N.N.N.N.NCCCCN(CCCN)C(=O)OCc1ccccc1.[Cl-].[Cl-].[Cl][Pt+].[Cl][Pt+] [Compound 3, [{trans-Pt(NH3)2Cl}2— —N^4-CBz-spermidine-N^1,N^8]Cl2] |  |  |  |  |  | [0.13] % | [0.12] % |  |  | 24 µM | 100 µM | 4.2 | 25 µM | 43 µM | 1.7 | > 100 µM | % 1 (percentage of 1 of the overall integration in the chromatogram after incubation) [5, 12]: 0.05%; amount of 1 detected in the samples ([5]; pH 5 and 6, 37° C., over the complete timecourse): below 0.1%; % 1 (percentage of 1 of the overall integration in the chromatogram after incubation) [5, 13]: 0.05% |
| N.N.N.N.NCCCCN(CCCN)C(=O)OCC1c2ccccc2-c2ccccc21.[Cl-].[Cl-].[Cl][Pt+].[Cl][Pt+] [Compound 4, [{trans-Pt(NH3)2Cl}2——N^4-Fmoc-spermidine-N^1,N^8]Cl2] |  |  |  |  |  | [1.0] % | [3.0] % | 9.74 (±0.88) · 10^−9 s^−1 | 6.12 (±0.09) · 10^−8 s^−1 | 0.84 µM | 65 µM | 77 | 46 µM | 62 µM | 1.3 | > 100 µM | Rate constant for the deprotection ([5]; pH 5, 37° C.): 3.99 (±0.96) · 10^−9 s^−1; % 1 (percentage of 1 of the overall integration in the chromatogram after incubation) [5, 12]: 0.14%; hydrolyzed species observed (HPLC profile) ([5]; pH 5 and 6, 37° C.): only minor amounts; % 1 (percentage of 1 of the overall integration in the chromatogram after incubation) [5, 13]: 0.45%; % 1, corrected for the different extinction coefficients at 215 nm [5, 14]: [19.6] %; % 1 (percentage of 1 of the overall integration in the chromatogram after incubation) [5, 14]: 3.4%; free spermidine complex released (HPLC profile) ([5]; pH 7 and 8, 37° C.): considerable amounts; % 1, corrected for the different extinction coefficients at 215 nm ([5]; pH 8, 37° C., time 30 d (4)): [35.2] %; Rate constant for the deprotection ([5]; pH 8, 37° C.): 1.44 (±0.07) · 10^−7 s^−1; % 1 (percentage of 1 of the overall integration in the chromatogram after incubation) ([5]; pH 8, 37° C., time 30 d (4)): 7.3% |
| CC(=O)N(CCCN)CCCCN.N.N.N.N.[Cl-].[Cl-].[Cl][Pt+].[Cl][Pt+] [Compound 5, [{trans-Pt(NH3)2Cl}2-μ-N^4—CH3CO-spermidine-N^1,N^8]Cl2] |  |  |  |  |  |  |  |  |  | 14 µM | 54 µM | 3.9 | 7.4 µM | 12.5 µM | 1.7 | 17.5 µM | IC50 [11]: 24 µM; RF CH1/CDDP [11]: 1.4 |
| N.N.N.N.NCCCCN(CCCN)C(=O)C(F)(F)F.[Cl-].[Cl-].[Cl][Pt+].[Cl][Pt+] [Compound 7, [{trans-Pt(NH3)2Cl}2-μ-N^4—CF3CO-spermidine-N^1,N^8]Cl2] |  |  |  |  |  |  |  | 4.44 (±0.11) · 10^−8 s^−1 | 2.73 (±0.06) · 10^−7 s^−1 | 6.8 µM | 46 µM | 6.8 | 2.4 µM | 5 µM | 2.1 | 3.7 µM | Rate constant for the deprotection ([5]; pH 8, 37° C.): 1.79 (±0.03) · 10^−6 s^−1; IC50 [11]: 19 µM; RF CH1/CDDP [11]: 5.1 |
| N.N.[Cl][Pt][Cl] [cisplatin, reference compound] | 1.3 µM | 59 µM | 44 | 5.0 (0.89) attamol Pt complex/cell | 1.5 (0.76^ attamol Pt complex/cell |  |  |  |  | 1.6 µM | 12 µM | 7.5 | 0.34 µM | 1.1 µM | 3.2 | 2.3 µM |  |
